Assay results taken from PubChem BioAssay (NCI).
Several values for one entry are separate records, joined by “and”; a condition that tells them apart may be missing. Identical values can stand only once.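 Step 1: Grow cells in 96-well plates. Step 2: Expose to compound for 48 hours at 5 concentrations. Step 3: Interpolate endpoints linearly; if unreached, use highest concentration. The concentration for 50% growth inhibition is given as GI50. TGI marks complete inhibition of growth.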

Experiments:
Experiment in all cases: growth of human tumour cells (NCI), 48 h
HCT-116 colon = tested on: HCT-116 colon
HCT-15 colon = tested on: HCT-15 colon
KM12 colon = tested on: KM12 colon
NCI-H23 lung = tested on: NCI-H23 lung
OVCAR-4 ovarian = tested on: OVCAR-4 ovarian
SK-MEL-2 melanoma = tested on: SK-MEL-2 melanoma
SW-620 colon = tested on: SW-620 colon
U251 CNS = tested on: U251 CNS
BT-549 breast = tested on: BT-549 breast
DU-145 prostate = tested on: DU-145 prostate
MDA-N = tested on: MDA-N
NCI/ADR-RES ovarian = tested on: NCI/ADR-RES ovarian
MCF7 breast = tested on: MCF7 breast

Structure (SMILES) | TGI (HCT-116 colon) | TGI (HCT-15 colon) | TGI (KM12 colon) | TGI (NCI-H23 lung) | TGI (OVCAR-4 ovarian) | TGI (SK-MEL-2 melanoma) | TGI (SW-620 colon) | TGI (U251 CNS) | GI50 (BT-549 breast) | TGI (BT-549 breast) | TGI (DU-145 prostate) | TGI (MDA-N) | GI50 (NCI/ADR-RES ovarian) | TGI (NCI/ADR-RES ovarian) | TGI (MCF7 breast) | GI50 (HCT-15 colon) | GI50 (KM12 colon) | GI50 (MCF7 breast) | GI50 (OVCAR-4 ovarian) | GI50 (U251 CNS)
COc1ccc2ccccc2c1C1=NC(C)(C)CO1 | > 100 µM | > 100 µM | > 100 µM | > 100 µM | > 100 µM | > 100 µM | > 100 µM | > 100 µM |  |  |  |  |  |  |  |  |  |  |  | 
CC(=O)OC1COC(N2CCc3cc([N+](=O)[O-])ccc32)C(OC(C)=O)C1OC(C)=O (stereo not drawn) |  | > 100 µM | > 100 µM | > 100 µM | > 100 µM | > 100 µM | > 100 µM | > 100 µM |  |  |  |  |  |  |  |  |  |  |  | 
O=[N+]([O-])c1cccc2nc3ccccc3c(NCCCCCNc3c4ccccc4nc4cccc([N+](=O)[O-])c34)c12 | 0.0346 µM | 0.0573 µM and 0.119 µM | 0.249 µM and 0.029 µM | 0.185 µM | 0.738 µM | 0.285 µM | 1.62 µM |  | 0.183 µM | 0.39 µM and 1.02 µM | 0.0929 µM | 0.191 µM | 0.297 µM | 2.19 µM and 1.28 µM |  |  |  |  |  | 
COc1cc2nc(Cl)nc(NS(=O)(=O)c3cc4ccccc4s3)c2cc1OC | > 100 µM | > 100 µM | 51.2 µM | 62.5 µM | 88.1 µM | 61.1 µM | 43.5 µM | 68.5 µM |  | 57.9 µM | 60.1 µM |  |  | > 100 µM | > 100 µM |  |  |  |  | 
COC(=O)C(C(=O)C(=O)Nc1c(Cl)cc([N+](=O)[O-])cc1Cl)c1csc(-n2nc(C3=CCCCC3)cc2-c2ccccc2)n1 (stereo not drawn) | > 100 µM | > 100 µM | > 100 µM |  | > 100 µM | > 100 µM | > 100 µM | > 100 µM |  |  |  |  |  |  |  |  |  |  |  | 
CC1=NN(c2nc(N)nc(C(C)Cl)n2)C(C)(C)C1 (stereo not drawn) | > 100 µM | > 100 µM | > 100 µM | > 100 µM | > 100 µM | > 100 µM | > 100 µM | > 100 µM |  | > 100 µM | > 100 µM |  |  | > 100 µM | > 100 µM |  |  |  |  | 
N#Cc1ccccc1OCCOc1ccccc1C#N | > 100 µM | > 100 µM | > 100 µM | > 100 µM | > 100 µM | > 100 µM | > 100 µM | > 100 µM |  | > 100 µM | > 100 µM |  |  | > 100 µM | > 100 µM |  |  |  |  | 
CCN(CC)CCNc1ccc([N+](=O)[O-])c2nc3ccc(OC)cc3c(NCCN(CC)CC)c12 | 2.13 µM | 2.52 µM | 3.6 µM | 4.38 µM | 3.1 µM | 4.87 µM | 2.51 µM | 2.59 µM |  |  | > 7.37 µM | 2.39 µM |  | 2.76 µM | 2.71 µM |  |  |  |  | 
C1CSCCSCCCS[C@@H]2CCCCC2SC1 (stereo partly drawn) | > 100 µM | 28.8 µM | > 100 µM | > 100 µM | > 100 µM | > 100 µM | 53.5 µM | > 100 µM |  |  |  |  |  |  |  |  |  |  |  | 
CSc1nncc(-c2cc3c(c(SC)n2)CCCC3)n1 | > 100 µM | > 100 µM | > 100 µM | > 100 µM | > 100 µM | > 100 µM | > 100 µM | > 100 µM |  | > 100 µM | > 100 µM | > 100 µM |  | > 100 µM |  |  |  |  |  | 
COC(CN(C)C(=S)Nc1cccc2ccccc12)OC | > 10 µM | > 10 µM | > 10 µM | > 10 µM | > 10 µM | > 10 µM | > 10 µM | > 10 µM |  |  | > 10 µM | > 10 µM |  | > 10 µM | > 10 µM |  |  |  |  | 
CN(NC1=NCCO1)c1ccc2ccccc2c1 | > 100 µM | > 100 µM | > 100 µM | > 100 µM | > 100 µM | 97.2 µM | > 100 µM | > 100 µM |  |  | > 100 µM |  |  | > 100 µM | > 100 µM |  |  |  |  | 
Cc1c(C)c(S(=O)(=O)N(CCCCN)OCCCN)c(C)c2c1OC(C)(C)CC2 | 35.8 µM | 46.9 µM | 42.8 µM | 38.1 µM | 30 µM | 24.9 µM | > 100 µM | > 100 µM |  |  | 57.7 µM | > 100 µM |  | > 100 µM | > 100 µM |  |  |  |  | 
O=C1CC(c2cccc(Cl)c2)Nc2ccc(N3CCCC3)cc21 (stereo not drawn) |  | > 100 µM | 0.117 µM |  | > 100 µM |  | > 100 µM | > 100 µM |  |  | 2.25 µM and 13.6 µM |  |  |  | > 100 µM | 0.0329 µM | 0.0153 µM | 0.0649 µM | 18.6 µM | 
Cn1c2ccccc2c(=O)c2c(O)cc3c(c21)C1OCC(C)(O)C1O3 (stereo not drawn) | > 100 µM | > 100 µM |  |  | > 100 µM | > 100 µM | > 100 µM | 62.5 µM |  |  | > 100 µM | > 100 µM |  | > 100 µM | > 100 µM |  |  |  |  | 
COc1cc([C@@H]2c3cc4c(cc3[C@@H](Nc3ccc(NC(=O)c5cc([N+](=O)[O-])cn5C)cc3)[C@H]3COC(=O)[C@H]23)OCO4)cc(OC)c1O | > 100 µM and 10 µM | 1.54 µM and 2.48 µM |  | 4.04 µM and 0.546 µM | > 100 µM |  |  | > 57.5 µM | 0.515 µM | > 100 µM | 0.0772 µM and 0.0578 µM |  | 2.17 µM | > 31.6 µM | > 31.6 µM | 0.192 µM |  |  | 11.6 µM and 4.09 µM | 0.0436 µM and 0.337 µM
COC(=O)/C=C/c1ccc(OP(=O)(O)O)c(OC)c1 | > 100 µM | > 100 µM | > 100 µM | > 100 µM | > 100 µM | > 100 µM | > 100 µM | > 100 µM |  | > 100 µM | > 100 µM | > 100 µM |  |  | > 100 µM |  |  |  |  | 
Cc1nc2c(sc3nc4c(cc32)CCC4)c(=O)o1 | > 100 µM | 99.6 µM | > 100 µM | > 100 µM | 89 µM | > 100 µM | > 100 µM | > 100 µM |  |  | > 100 µM | > 100 µM |  | > 100 µM | > 100 µM |  |  |  |  | 
COc1ccc(-c2c(C3=NCCCN3)nnn2-c2ccccc2)cc1 | > 100 µM | > 100 µM | > 100 µM | > 100 µM | > 100 µM | > 100 µM | > 100 µM | > 100 µM |  |  |  |  |  |  |  |  |  |  |  | 
O=C1CC(c2ccc(Cl)cc2)=Nc2ccccc2N1 | 59.6 µM | > 100 µM | > 100 µM | > 100 µM | > 100 µM | > 100 µM | 47.9 µM | 75.6 µM |  |  |  |  |  |  |  |  |  |  |  | 
